Measured values taken from patent US20150093335A1, “CELL-TARGETED MAGNETIC NANO-MATERIAL AND BIOMEDICAL USES THEREOF” (Institute of Geology and Geophysics, Chinese Academy of …, priority 2012, published 2015).
Where a name gives a salt, the structure may show the parent alone.

Legend:
[1] = Longitudinal (r1) and transversal relaxivity measurement of gadolinium materials, 4.7T MRI; type: physicochemical; settings: per gadolinium concentration 0-1 mM
Text: Gd contrast agents in clinical use can enhance the signal intensity of the lesion area during T1-weighted magnetic resonance imaging, thus showing a bright area. Since human naked eye is more sensitive to bright matters, these contrast agents can better meet the needs of human naked eye. But Gd contrast agents in clinical use have no targeting feature and have a low relaxation rate, thus failing to meet the needs for early diagnosis of diseases such as tumors. In the present invention, a tumor-targeted ferritin shell is used, and in the cavity thereof a gadolinium-iron nano-material is formed by biomimetic mineralization. By using purified human H-subunit ferritin as a template, a ferrous salt, a gadolinium salt and oxidant hydrogen peroxide are added into a solution of recombinant human ferritin, controlling the pH at 8.5 and the temperature at 65° C. […] The numbers of iron atoms and gadolinium atoms are measured through inductively coupled plasma mass spectrometry. The longitudinal relaxivity (r1) and transversal relaxivity (r2) of the material are measured using a 4.7T magnetic resonance imaging system. […]

U87MG human glioma = test: 4.7T MRI of in-situ glioma; type: in vivo, nude mouse; settings: 0.1 mmol/kg tail vein, scanned 2 hours, glioma about 1-2 mm
Method: 10^6 U87MG human glioma cells (purchased from ATCC, cultivated at Nanjing KeyGEN BioTECH development Ltd.) are inoculated onto the cerebral cortex of a nude mouse by in-situ penetration through the cranium and its tympanic membrane slightly off the median line of the cerebrum. Magnetic resonance imaging is conducted after about 3-4 days. The nude mouse is anesthetized by respiratory anesthesia and an intravenous needle is detained in tail vein. The mouse is put into a 4.7T MRI system and stays in stationary state in the course of magnetic resonance scanning. The commercialized Gd-DTPA contrast agent (magnevist, produced by Bayer Corp.) is first injected through tail vein as reference (injection dosage: 0.1 mmol/kg) and is scanned continuously for 2 hours in the magnetic resonance chamber. After the Gd-DTPA is completely metabolized and excreted, human H-subunit magnetoferritin is injected through tail vein (injection dosage: 20 mg Fe/kg mouse weight) and is scanned continuously for 3 hours. […]
Purified human H-subunit ferritin is partially or totally denatured using denaturant such as guanidine hydrochloride (1-7 M) or urea (2-8 M) etc. such that the subunits are partially or totally depolymerized. […] Protein quantification is conducted using BCA protein quantification reagent kit. The number of Gd atoms encapsulated in a single protein molecule is measured using ICP-MS. […]

NCI-H460 lung cancer = test: Treatment experiment on lung cancer in vivo

Structure (SMILES): O=C([O-])CN(CCN(CC(=O)[O-])CC(=O)O)CCN(CC(=O)[O-])CC(=O)O.[Gd+3] [Gd-DTPA]
- longitudinal relaxivity r1 [1]: about 5.9 mM^−1S^−1
- T1-weighted MRI signal intensity of the glioma area after injection (U87MG human glioma): no evident change

Structure (SMILES): COc1cccc2c1C(=O)c1c(O)c3c(c(O)c1C2=O)C[C@@](O)(C(=O)CO)C[C@@H]3O[C@H]1C[C@H](N)[C@H](O)[C@H](C)O1 [doxorubicin hydrochloride]
- tumor volume difference versus PBS control group (NCI-H460 lung cancer; 8 days after administration, doxorubicin 3 mg/kg every 3 days): minute difference
- average tumor inhibition rate (NCI-H460 lung cancer; tumor weights, doxorubicin 3 mg/kg tail vein every 3 days, 15 days, 3 mice per group): 23%
